According to US5516806A, “Ornithine decarboxylase inhibiting cyclic aminooxy compounds” (Ciba-Geigy Corporation, priority 1993, dated 1996):
Structures can show the parent of a compound that is named as a salt.

Assays:
[1] = target: T1, ornithine decarboxylase (ODC) (Rattus norvegicus, UniProt P09057); experiment: Inhibition of ornithine decarboxylase (method of Seely and Pegg, ODC from rat liver); type: biochemical
T1 construct: from tissue; host or cells: rat liver
T1 sequence (P09057 1-461): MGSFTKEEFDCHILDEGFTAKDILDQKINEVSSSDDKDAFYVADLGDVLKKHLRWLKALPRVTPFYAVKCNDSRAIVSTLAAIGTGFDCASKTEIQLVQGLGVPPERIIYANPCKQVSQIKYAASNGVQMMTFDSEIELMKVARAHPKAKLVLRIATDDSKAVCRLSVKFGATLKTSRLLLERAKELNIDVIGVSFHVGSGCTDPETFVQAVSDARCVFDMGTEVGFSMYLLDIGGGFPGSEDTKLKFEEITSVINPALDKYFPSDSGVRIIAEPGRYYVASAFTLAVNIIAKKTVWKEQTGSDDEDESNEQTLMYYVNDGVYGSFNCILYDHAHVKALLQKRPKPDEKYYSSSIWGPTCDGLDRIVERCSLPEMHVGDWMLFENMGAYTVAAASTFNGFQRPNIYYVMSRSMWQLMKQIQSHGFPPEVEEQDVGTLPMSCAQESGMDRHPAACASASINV
Experimental: White-Tabor (editors): Methods in Enzymology, Volume 94: Polyamines, Academic Press, New York 1983. If ODC from rat liver is used in this test (isolation: Hayashi, S.-I. and Kameji, T., same volume, pages 154-158), IC50 values in the micromolar region, down to about 0.01 μM, preferably between about 0.01 and 10 μM, for example between about 0.02 and about 7.2 μM, are obtained for the compounds of the formula I.IC50 is the concentration of the inhibitor at which the ODC activity is 50% of that of a control without the inhibitor.
(§1) On measurement of the IC50 for inhibition of ornithine decarboxylase (by the abovementioned method of Seely and Pegg with ODC from rat liver (obtained by the method of Hayashi and Kameji, see above)) and of the IC50 for inhibition of proliferation of T24 bladder carcinoma cells as described above, the following IC50 values can be found with the particular compounds mentioned from the examples: […]

[2] = tested on: human T24 bladder carcinoma cells; experiment: Inhibition of proliferation of T24 bladder carcinoma cells (methylene blue staining, 5 days); type: cell-based; details: T-24, 120 h, 5 days incubation, read-out: Inhibition of T24 cell growth IC50
Experimental: The carcinoma cells (1000-1500) are transinoculated into 96-depression microlitre plates and incubated overnight under the conditions mentioned. The test substance is added in serial dilutions on day 1. The plates are incubated under the conditions mentioned for 5 days. During this period of time, the control cultures pass through at least 4 cell divisions. After the incubation, the cells are fixed with 3.3% (weight/volume=w/v) aqueous glutaraldehyde solution, washed with water and dyed with 0.05% (w/v) aqueous methylene blue solution. After washing, the dye is eluted with 3% (w/v) aqueous hydrochloric acid. Thereafter, the optical density (OD) per depression, which is directly proportional to the number of cells, is measured with a photometer (Titertek multiskan) at 665 nm. The IC50 values are calculated with a computer system using the formula [formula]
The IC50 values are defined as that concentration of active ingredient at which the number of cells per depression at the end of the incubation time is only 50% of the number of cells in the control cultures.
as §1

Row | Compound | IC50 [1] | IC50 [2]
1 | NCC1CC(ON)C1 (stereo not shown) [Example 9, 3-Aminooxy-cyclobutylmethylamine dihydrochlofide] | 53 nM | 
2 | NOC[C@H]1C[C@@H](N)C1 [Example 6, cis-3-Aminooxymethyl-cyclobutylamine dihydrochlofide] | 83 nM | 
3 | NO[C@H]1CC[C@H](N)CC1 [Example 1, trans-4-Aminooxy-cyclohexylamine dihydrochloride] | 220 nM | 7500 nM

Other lines, results leading:

Row | IC50 [1] | IC50 [2] | Compound
4 | 20 nM | 4150 nM | NOCC1CC(N)C1 (stereo not shown) [Example 8, 3-Aminooxymethyl-cyclobutylamine dihydrochloride]
5 | 23 nM | 4900 nM | NOC[C@H]1C[C@H](N)C1 [Example 7, trans-3-Aminooxymethyl-cyclobutylamine dihydrochloride]
6 | 470 nM |  | NC[C@@H]1C[C@@H]1CON (relative stereo) [Example 10, cis-2-Aminooxymethyl-cyclopropylmethylamine dihydrochloride]
7 |  | 11000 nM | NO[C@H]1CCC[C@H](N)C1 (relative stereo) [Example 3, trans-3-Aminooxy-cyclohexylamine dihydrochloride]
